From patent US8192962B2, “Processes for detecting toxic substances” (Daikin Industries, Ltd., priority 2001, dated 2012)

System: Unknown protein yeast genes
Assay: DNA chip mRNA expression in yeast, unknown protein yeast genes (Table 1)
Type: cell-based, Saccharomyces cerevisiae S288C
Protocol: Yeast (Saccharomyces cerevisiae S288C (α SUC2mal mel gap2 CUP1)) were incubated at 25° C. on YPD medium (yeast extract 1%, polypepton 2%, glucose 2%). One of toxic chemical substances was added to the cells at logarithmic growth phase, and the cells were further incubated for two hours. Cells were cultured without any chemical substance in the same condition, and were used as control. Concentrations of the chemical substances were defined to inhibit the growth of the yeast but not lead to death.
After completion of the incubation, the culture was centrifuged to collect the cells. To the cells, sodium acetate buffer (50 mM sodium acetate, 10 mM EDTA, 1% SDS) was added, and the mixture was shaken at 65° C. for five minutes, followed by returning to room temperature, and obtaining the supernatant, of which the procedures were repeated two times. To the supernatant, ½ amount of a solution of phenol/chloroform was added, and the mixture was centrifuged to give a supernatant, which was added with an equal amount of chloroform, and the mixture was centrifuged to give a supernatant. To the supernatant, an equal amount of isopropanol containing 0.3 M sodium acetate was added, and the mixture was allowed to stand at room temperature for 30 minutes, after which the mixture was centrifuged to give a sediment of the whole RNAs. Seventy % ethanol was added to the sediment, and the mixture was again centrifuged to give a sediment, which was then dried and dissolved in water. mRNA was isolated from the whole RNAs as followings. In view of the fact that a poly A chain is attached to the 3′ terminus of mRNA, a polynucleotide having a poly T structure which was immobilized on the surface of latex beads was used to trap the mRNA, and then the mRNA was washed and eluted with spine column (Oligotex-dT30<Super>mRNA Purification Kit, Takara). Reverse transcription of the mRNA was conducted with a reverse transcriptase (Super Script II Reverse Transcriptase; catalogue No. 18064-014, GibcoBRL) using fluorescence-labeled nucleotides to give cDNAs that were introduced with Cy3-dUTP or Cy5-dUTP during the reverse transcription.
The labeled cDNAs were dissolved in TE buffer (10mM Tris-HCl/1 mM EDTA, pH8.0), and the solution was dropped on the DNA chip containing the whole genes of yeast (DNA Chip Research Inc. Japan) so that the cDNAs were hybridized on the DNA chip at 65° C. for over 12 hours. The fluoresces intensity of the DNA chip was read with a scanner, and the ratio relative to the fluorescence intensity resulting from the absence of chemical substance was estimated as the following, which is shown in Tables 1 to 9: […]

Q: How did the “The level of expressed mRNA in the presence of chemical substance/The level of expressed mRNA in the absence of chemical substance” value (yeast gene YAL053W, incubated two hours with chemical substance) turn out when `[Cl][Cd][Cl]` [(2), CdCl2] was run?
A: The value was 0.9.

Q: What about the “The level of expressed mRNA in the presence of chemical substance/The level of expressed mRNA in the absence of chemical substance” value (yeast gene YBL048W) of the same molecule?
A: Its value is 7.9.

Q: And the “The level of expressed mRNA in the presence of chemical substance/The level of expressed mRNA in the absence of chemical substance” value (yeast gene YBL107C)?
A: The value was 1.1.

Q: And the “The level of expressed mRNA in the presence of chemical substance/The level of expressed mRNA in the absence of chemical substance” value (yeast gene YDL072C, incubated two hours with chemical substance)?
A: Its value is 1.1.

Q: And the “The level of expressed mRNA in the presence of chemical substance/The level of expressed mRNA in the absence of chemical substance” value (yeast gene YDL204W, incubated two hours with chemical substance)?
A: The value was 1.9.

Q: And the “The level of expressed mRNA in the presence of chemical substance/The level of expressed mRNA in the absence of chemical substance” value (yeast gene YDL222C, incubated two hours with chemical substance)?
A: Its value is 1.1.

Q: And the “The level of expressed mRNA in the presence of chemical substance/The level of expressed mRNA in the absence of chemical substance” value (yeast gene YDR330W, incubated two hours with chemical substance)?
A: The value was 1.5.

Q: What about the “The level of expressed mRNA in the presence of chemical substance/The level of expressed mRNA in the absence of chemical substance” value (yeast gene YDR411C, incubated two hours with chemical substance) of the same molecule?
A: Its value is 2.8.

Q: And the “The level of expressed mRNA in the presence of chemical substance/The level of expressed mRNA in the absence of chemical substance” value (yeast gene YDR511W, incubated two hours with chemical substance)?
A: The value was 1.7.

Q: And the “The level of expressed mRNA in the presence of chemical substance/The level of expressed mRNA in the absence of chemical substance” value (yeast gene YDR545W, incubated two hours with chemical substance)?
A: The value was 1.2.

Q: And the “The level of expressed mRNA in the presence of chemical substance/The level of expressed mRNA in the absence of chemical substance” value (yeast gene YEL001C, incubated two hours with chemical substance)?
A: Its value is 1.0.

Q: What about the “The level of expressed mRNA in the presence of chemical substance/The level of expressed mRNA in the absence of chemical substance” value (yeast gene YER004W, incubated two hours with chemical substance) of the same molecule?
A: The value was 1.5.

Q: What about the “The level of expressed mRNA in the presence of chemical substance/The level of expressed mRNA in the absence of chemical substance” value (yeast gene YER035W, incubated two hours with chemical substance) of the same molecule?
A: Its value is 1.6.

Q: And the “The level of expressed mRNA in the presence of chemical substance/The level of expressed mRNA in the absence of chemical substance” value (yeast gene YER079W, incubated two hours with chemical substance)?
A: Its value is 1.6.

Q: And the “The level of expressed mRNA in the presence of chemical substance/The level of expressed mRNA in the absence of chemical substance” value (yeast gene YER106W, incubated two hours with chemical substance)?
A: Its value is 0.7.

Q: And the “The level of expressed mRNA in the presence of chemical substance/The level of expressed mRNA in the absence of chemical substance” value (yeast gene YER158C, incubated two hours with chemical substance)?
A: The value was 0.9.

Q: What about the “The level of expressed mRNA in the presence of chemical substance/The level of expressed mRNA in the absence of chemical substance” value (yeast gene YER163C, incubated two hours with chemical substance) of the same molecule?
A: Its value is 2.4.

Q: What about the “The level of expressed mRNA in the presence of chemical substance/The level of expressed mRNA in the absence of chemical substance” value (yeast gene YER175C, incubated two hours with chemical substance) of the same molecule?
A: Its value is 1.2.

Q: What about the “The level of expressed mRNA in the presence of chemical substance/The level of expressed mRNA in the absence of chemical substance” value (yeast gene YFL006W, incubated two hours with chemical substance) of the same molecule?
A: Its value is 2.8.

Q: What about the “The level of expressed mRNA in the presence of chemical substance/The level of expressed mRNA in the absence of chemical substance” value (yeast gene YFL010C, incubated two hours with chemical substance) of the same molecule?
A: Its value is 4.8.

Q: And the “The level of expressed mRNA in the presence of chemical substance/The level of expressed mRNA in the absence of chemical substance” value (yeast gene YFL024C)?
A: The value was 1.1.

Q: And the “The level of expressed mRNA in the presence of chemical substance/The level of expressed mRNA in the absence of chemical substance” value (yeast gene YFL032W, incubated two hours with chemical substance)?
A: The value was 1.5.

Q: And the “The level of expressed mRNA in the presence of chemical substance/The level of expressed mRNA in the absence of chemical substance” value (yeast gene YGL037C, incubated two hours with chemical substance)?
A: The value was 2.7.

Q: And the “The level of expressed mRNA in the presence of chemical substance/The level of expressed mRNA in the absence of chemical substance” value (yeast gene YGL047W, incubated two hours with chemical substance)?
A: The value was 1.9.

Q: And the “The level of expressed mRNA in the presence of chemical substance/The level of expressed mRNA in the absence of chemical substance” value (yeast gene YGL053W, incubated two hours with chemical substance)?
A: Its value is 1.5.

Q: What about the “The level of expressed mRNA in the presence of chemical substance/The level of expressed mRNA in the absence of chemical substance” value (yeast gene YGL121C) of the same molecule?
A: Its value is 5.0.

Q: What about the “The level of expressed mRNA in the presence of chemical substance/The level of expressed mRNA in the absence of chemical substance” value (yeast gene YGL199C, incubated two hours with chemical substance) of the same molecule?
A: Its value is 1.7.

Q: And the “The level of expressed mRNA in the presence of chemical substance/The level of expressed mRNA in the absence of chemical substance” value (yeast gene YGR101W, incubated two hours with chemical substance)?
A: The value was 1.3.

Q: And the “The level of expressed mRNA in the presence of chemical substance/The level of expressed mRNA in the absence of chemical substance” value (yeast gene YGR110W)?
A: The value was 3.1.

Q: What about the “The level of expressed mRNA in the presence of chemical substance/The level of expressed mRNA in the absence of chemical substance” value (yeast gene YGR130C, incubated two hours with chemical substance) of the same molecule?
A: Its value is 0.7.

Q: What about the “The level of expressed mRNA in the presence of chemical substance/The level of expressed mRNA in the absence of chemical substance” value (yeast gene YGR154C, incubated two hours with chemical substance) of the same molecule?
A: Its value is 2.9.

Q: What about the “The level of expressed mRNA in the presence of chemical substance/The level of expressed mRNA in the absence of chemical substance” value (yeast gene YGR221C, incubated two hours with chemical substance) of the same molecule?
A: The value was 2.2.

Q: And the “The level of expressed mRNA in the presence of chemical substance/The level of expressed mRNA in the absence of chemical substance” value (yeast gene YHR138C, incubated two hours with chemical substance)?
A: Its value is 1.8.

Q: What about the “The level of expressed mRNA in the presence of chemical substance/The level of expressed mRNA in the absence of chemical substance” value (yeast gene YHR199C, incubated two hours with chemical substance) of the same molecule?
A: Its value is 2.0.

Q: And the “The level of expressed mRNA in the presence of chemical substance/The level of expressed mRNA in the absence of chemical substance” value (yeast gene YIL023C, incubated two hours with chemical substance)?
A: Its value is 1.2.

Q: And the “The level of expressed mRNA in the presence of chemical substance/The level of expressed mRNA in the absence of chemical substance” value (yeast gene YIL041W, incubated two hours with chemical substance)?
A: Its value is 1.2.

Q: What about the “The level of expressed mRNA in the presence of chemical substance/The level of expressed mRNA in the absence of chemical substance” value (yeast gene YIL087C, incubated two hours with chemical substance) of the same molecule?
A: The value was 1.9.

Q: What about the “The level of expressed mRNA in the presence of chemical substance/The level of expressed mRNA in the absence of chemical substance” value (yeast gene YJL057C, incubated two hours with chemical substance) of the same molecule?
A: Its value is 1.2.

Q: And the “The level of expressed mRNA in the presence of chemical substance/The level of expressed mRNA in the absence of chemical substance” value (yeast gene YJL066C, incubated two hours with chemical substance)?
A: Its value is 1.2.

Q: And the “The level of expressed mRNA in the presence of chemical substance/The level of expressed mRNA in the absence of chemical substance” value (yeast gene YJL082W, incubated two hours with chemical substance)?
A: The value was 0.8.

Q: What about the “The level of expressed mRNA in the presence of chemical substance/The level of expressed mRNA in the absence of chemical substance” value (yeast gene YJL151C, incubated two hours with chemical substance) of the same molecule?
A: Its value is 2.4.

Q: And the “The level of expressed mRNA in the presence of chemical substance/The level of expressed mRNA in the absence of chemical substance” value (yeast gene YJL152W, incubated two hours with chemical substance)?
A: The value was 1.5.

Q: What about the “The level of expressed mRNA in the presence of chemical substance/The level of expressed mRNA in the absence of chemical substance” value (yeast gene YJL161W, incubated two hours with chemical substance) of the same molecule?
A: The value was 2.2.

Q: What about the “The level of expressed mRNA in the presence of chemical substance/The level of expressed mRNA in the absence of chemical substance” value (yeast gene YJL171C, incubated two hours with chemical substance) of the same molecule?
A: The value was 0.7.

Q: What about the “The level of expressed mRNA in the presence of chemical substance/The level of expressed mRNA in the absence of chemical substance” value (yeast gene YJR008W, incubated two hours with chemical substance) of the same molecule?
A: The value was 1.5.

Q: And the “The level of expressed mRNA in the presence of chemical substance/The level of expressed mRNA in the absence of chemical substance” value (yeast gene YJR054W, incubated two hours with chemical substance)?
A: Its value is 0.9.

Q: And the “The level of expressed mRNA in the presence of chemical substance/The level of expressed mRNA in the absence of chemical substance” value (yeast gene YKL071W)?
A: The value was 3.8.

Q: And the “The level of expressed mRNA in the presence of chemical substance/The level of expressed mRNA in the absence of chemical substance” value (yeast gene YKL086W, incubated two hours with chemical substance)?
A: Its value is 1.1.

Q: And the “The level of expressed mRNA in the presence of chemical substance/The level of expressed mRNA in the absence of chemical substance” value (yeast gene YKL151C, incubated two hours with chemical substance)?
A: Its value is 3.1.

Q: And the “The level of expressed mRNA in the presence of chemical substance/The level of expressed mRNA in the absence of chemical substance” value (yeast gene YKL153W, incubated two hours with chemical substance)?
A: Its value is 1.4.
